Source: patent publication US11230526B1, “Cylcoalkenyl derivatives useful as agonists of the GPR120 and/or GPR40 receptors” (Janssen Pharmaceutica NV, priority 2018, dated 2022)

Assays:
Type in all cases: cell-based
[1] = target: T1, Human GPR120 short form (Homo sapiens, UniProt Q5NUL3); test: Human GPR120 calcium flux assay, Procedure Calcium B (4200 cells/well)
T1 construct: expressed in transfected cells
T1 sequence (Q5NUL3 1-361): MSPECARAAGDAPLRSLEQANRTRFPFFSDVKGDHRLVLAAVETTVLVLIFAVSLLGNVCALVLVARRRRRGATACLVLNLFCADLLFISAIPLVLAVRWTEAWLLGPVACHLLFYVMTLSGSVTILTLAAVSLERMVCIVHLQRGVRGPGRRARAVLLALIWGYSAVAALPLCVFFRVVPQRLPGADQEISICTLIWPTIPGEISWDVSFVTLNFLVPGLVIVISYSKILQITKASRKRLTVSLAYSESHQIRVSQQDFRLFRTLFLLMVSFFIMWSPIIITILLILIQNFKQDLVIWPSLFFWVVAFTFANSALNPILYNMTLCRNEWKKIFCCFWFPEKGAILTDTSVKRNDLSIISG
In short: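 HEK293 cells stably expressing human GPR120 (NM_001195755.1), 4200 cells/well, starved 1 h and loaded with Fluo-4 NW plus probenecid. Ligand-evoked calcium flux read on FLIPR for 300 s after a 10 s baseline. RFU = Fmax−Fmin; EC50 from four-parameter concentration-response fit.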

[2] = target: T2, human GPR40 (Homo sapiens, UniProt O14842); test: GPR40 calcium flux assay, human GPR40; details: HEK293 cells stably expressing GPR40; table does not say human or rat
T2 construct: expressed in transfected cells
T2 sequence (O14842 whole entry): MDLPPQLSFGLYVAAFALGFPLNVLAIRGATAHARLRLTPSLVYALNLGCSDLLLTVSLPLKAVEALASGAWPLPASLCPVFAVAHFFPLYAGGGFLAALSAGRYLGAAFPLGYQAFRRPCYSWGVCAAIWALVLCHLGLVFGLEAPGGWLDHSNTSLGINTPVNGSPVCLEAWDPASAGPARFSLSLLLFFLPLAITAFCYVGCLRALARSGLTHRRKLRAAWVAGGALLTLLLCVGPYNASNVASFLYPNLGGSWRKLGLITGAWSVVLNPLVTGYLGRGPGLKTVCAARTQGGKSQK
In short: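 Cells preincubated 1 h at 37° C. in HBSS, 20 mM HEPES, 0.1% BSA, then Fluo 8 calcium dye 30 min at 37° C. and 15 min at room temperature.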

[3] = target: T1, Human GPR120 short form; test: Human GPR120 calcium flux assay, Procedure Calcium A (2500 cells/well)
Source text: Human GPR120 in Calcium Flux Assay
This in vitro assay serves to assess test compound agonist activity against the short splice variant (SVS with Accession number NM_001195755.1 confirmed by sequencing data) of the GPR120 receptor. The Human Short splice variant #2 (NM_001195755.1) is missing an in-frame coding exon compared to variant 1 (the Human Long splice variant NM_181745.3), resulting in a shorter isoform (GPR120-S) lacking a 16 aa protein segment compared to isoform GPR120-L. The assay platform utilizes HEK-293 cells stably transfected to express the Human GPR120 short form. These cells are first loaded with the Ca^+2 sensitive dye, Fluo-4 NW. Upon stimulation, intracellular released Ca^+2 can bind to the dye and alter its fluorescence intensity. This increase in fluorescence signal, and thus the flux in intracellular [Ca^2+], is detected and quantitated by fluorescence imaging using a FLIPR reader. The effect of the agonist is measured as a function of concentration and used to calculate an EC50 based upon a response curve.
In this procedure 2500 cells/well were employed.
A Human GPR120 clone (Genbank accession number NM_001195755.1) was placed into the pcDNA3.1 mammalian expression vector carrying the neomycin resistance gene. A stable mammalian cell was generated by placing the above clone into a HEK293 background. Clonal cells responding to long chain fatty acids had expression levels of GPR120 confirmed by RT-qPCR. Human HEK-GPR120 cells were cultured in Dulbecco's Modified Eagle's Medium (DMEM)/F12 medium supplemented with 10% fetal bovine serum (FBS), 1% L-Glutamine and 1% penicillin/streptomycin and 0.5 mg/ml G-418. Cells were split 2 times a week to keep the cells in the log-phase growth.
In preparation for the assay, HEK cells stably transfected with Human GPR120 (2.5K cells per well in 25 uL growth medium) were seeded into 384-well plates and then incubated overnight (37° C., 5% CO2). The next day, the media was changed to 20 μL assay buffer and the cell starved for 1 h at 37° C. The dye loading solution (2× dye) was prepared using 10 mL assay buffer, 100 μL of 250 mM probenecid, 1 bottle of Component A, and 20 μl of dye in DMSO. Twenty μL of the 2× dye loading buffer was then added to each well. The plates were incubated at 37° C. for 30 min, then at room temperature for an additional 15 minutes, before performing the assay on FLIPR.
The assay was performed on a FLIPR plate reader using the following parameters. Baseline was read for 10 seconds at 1 sec intervals. The program was set to transfer 10 μL of ligand from compound plate to cell plate after baseline reading. Aspiration was executed at: 10 μL/sec speed, 4.6 μL height, Dispensing was executed at: 30 μL/sec speed, 45 μL height. After compound addition, each well was read for 300 sec, with measurements collected at 1 sec intervals.
The kinetic data from the FLIPR was based upon a 5 minute window for data collection. The fluorescence of each sample well was used for individual calculations of a normalized RFU value, which was defined as maximum response minus the minimum response. The normalized fluorescence reading (RFU) was calculated as follows: RFU=Fmax−Fmin
The Fitting Equation was: Y=Bottom+(Top-Bottom)/(1+10^((Log EC50−X)*HillSlope)), where X is the log of the concentration and Y is the response.

EC50 [1] [µM] | EC50 [2] [µM] | EC50 [3] [µM] | Structure (SMILES)
0.33 | 4.02 | 2.82 | O=C(O)CCc1ccc(OCC2=C(c3ccc(Cl)cc3)CCCC2)cc1F [Compound 504, 3-[4-[[2-(4-chlorophenyl)cyclohexen-1-yl]methoxy]-2-fluoro-phenyl]Propanoic Acid]
0.182 | > 5 | 1.59 | Cc1cc(OCC2=C(c3ccc(Cl)cc3)CCCC2)ccc1CCC(=O)O [Compound 506, 3-[4-[[2-(4-chlorophenyl)cyclohexen-1-yl]methoxy]-2-methyl-phenyl]Propanoic Acid]
0.755 | > 5 | 4.61 | Cc1c(CCC(=O)O)ccc(OCC2=C(c3ccc(C(C)C)cc3)CCCC2)c1C [Compound 516, 3-[4-[[2-(4-isopropylphenyl)cyclohexen-1-yl]methoxy]-2,3-dimethyl-phenyl]Propanoic Acid]
1.45 | > 5 | 2.36 | Cc1c(CCC(=O)O)ccc(OCC2=C(c3ccc(C#N)cc3)CCCC2)c1C [Compound 520, 3-[4-[[2-(4-cyanophenyl)cyclohexen-1-yl]methoxy]-2,3-dimethyl-phenyl]Propanoic Acid]
0.626 | > 5 | 1.28 | Cc1ccc(C2=C(COc3ccc(CCC(=O)O)c(C)c3C)CCCC2)cn1 [Compound 521]
